The source of these data is BindingDB's records for doi:10.1016/S0960-894X(00)80696-4 (1993).

Square brackets hold non-standard residues; d marks the D form. Peptide text beside a SMILES is read from it. Cha = N[C@@H](CC1CCCCC1)C(=O)O; Ahx = NCCCCCC(=O)O

The target in this experiment is Neuropeptide Y receptor type 2 (Oryctolagus cuniculus). In words: Compound was evaluated for its inhibitory activity against Y2 receptor of rabbit kidney membrane.
By IC50 is commonly meant the concentration that gives 50% inhibition. Higher therefore signals lower potency. The compound `CC[C@H](C)[C@H](NC(=O)[C@H](Cc1ccc(O)cc1)NC(=O)[C@H](Cc1c[nH]cn1)NC(=O)[C@H](CCCN=C(N)N)NC(C)=O)C(=O)N[C@@H](CC(N)=O)C(=O)N[C@@H](CC1CCCCC1)C(=O)N[C@@H](CC1CCCCC1)C(=O)N[C@H](C(=O)N[C@@H](CCCN=C(N)N)C(=O)N[C@@H](CCC(N)=O)C(=O)N[C@@H](CCCN=C(N)N)C(=O)N[C@@H](Cc1ccc(O)cc1)C(=O)O)[C@@H](C)O` [Ac-RHYIN-(Cha)-(Cha)-TRQRY] (Ac-RHYIN[Cha][Cha]TRQRY-OH) yielded an IC50 of 8 nM. Compound `CC[C@H](C)[C@H](NC(=O)[C@H](Cc1ccc(O)cc1)NC(=O)[C@H](Cc1c[nH]cn1)NC(=O)[C@H](CCCN=C(N)N)NC(C)=O)C(=O)N[C@@H](CC(N)=O)C(=O)N[C@@H](CC1CCCCC1)C(=O)N[C@H](C(=O)N[C@H](C(=O)N[C@@H](CCCN=C(N)N)C(=O)N[C@@H](CCC(N)=O)C(=O)N[C@@H](CCCN=C(N)N)C(=O)N[C@@H](Cc1ccc(O)cc1)C(=O)O)[C@@H](C)O)[C@@H](C)CC` [Ac-RHYIN-(Cha)-ITRQRY] (Ac-RHYIN[Cha]ITRQRY-OH) yielded an IC50 of 16 nM. The compound `CC[C@H](C)[C@H](NC(=O)[C@H](Cc1ccc(O)cc1)NC(=O)[C@H](Cc1cnc[nH]1)NC(=O)[C@H](CCCNC(=N)N)NC(=O)CCCCCNC(=O)[C@H](CCCCN)NC(=O)[C@H](CO)NC(=O)[C@@H]1CCCN1C(=O)[C@@H](N)Cc1ccc(O)cc1)C(=O)N[C@@H](CC(N)=O)C(=O)N[C@@H](CC(C)C)C(=O)N[C@H](C(=O)N[C@H](C(=O)N[C@@H](CCCNC(=N)N)C(=O)N[C@@H](CCC(N)=O)C(=O)N[C@@H](CCCNC(=N)N)C(=O)N[C@@H](Cc1ccc(O)cc1)C(N)=O)[C@@H](C)O)[C@@H](C)CC` [Neuropeptide Y analogue] (H-YPSK[Ahx]RHYINLITRQRY-NH2) yielded an IC50 of 180 nM. Compared with the last compound, the IC50 is about 11-fold higher.
